The target of data set [1] is ATP-dependent translocase ABCB1 (Homo sapiens, UniProt P08183). Briefly: Inhibition of p-glycoprotein in human adriamycin-resistant MCF7 cells assessed as increase of adriamycin accumulation at 20 uM after 1 hr by LC-MS/MS analysis relative to control. Format: cell-based. The following applies: mcf7, 1 h.
Data set [2] concerns the target Alpha-glucosidase MAL12 (Saccharomyces cerevisiae S288c, UniProt P53341). Kind of data set: Inhibition of yeast alpha-glucosidase using p-NPG as substrate.

Each structure is given as a SMILES string.

Chain of ATP-dependent translocase ABCB1 (P08183 whole entry): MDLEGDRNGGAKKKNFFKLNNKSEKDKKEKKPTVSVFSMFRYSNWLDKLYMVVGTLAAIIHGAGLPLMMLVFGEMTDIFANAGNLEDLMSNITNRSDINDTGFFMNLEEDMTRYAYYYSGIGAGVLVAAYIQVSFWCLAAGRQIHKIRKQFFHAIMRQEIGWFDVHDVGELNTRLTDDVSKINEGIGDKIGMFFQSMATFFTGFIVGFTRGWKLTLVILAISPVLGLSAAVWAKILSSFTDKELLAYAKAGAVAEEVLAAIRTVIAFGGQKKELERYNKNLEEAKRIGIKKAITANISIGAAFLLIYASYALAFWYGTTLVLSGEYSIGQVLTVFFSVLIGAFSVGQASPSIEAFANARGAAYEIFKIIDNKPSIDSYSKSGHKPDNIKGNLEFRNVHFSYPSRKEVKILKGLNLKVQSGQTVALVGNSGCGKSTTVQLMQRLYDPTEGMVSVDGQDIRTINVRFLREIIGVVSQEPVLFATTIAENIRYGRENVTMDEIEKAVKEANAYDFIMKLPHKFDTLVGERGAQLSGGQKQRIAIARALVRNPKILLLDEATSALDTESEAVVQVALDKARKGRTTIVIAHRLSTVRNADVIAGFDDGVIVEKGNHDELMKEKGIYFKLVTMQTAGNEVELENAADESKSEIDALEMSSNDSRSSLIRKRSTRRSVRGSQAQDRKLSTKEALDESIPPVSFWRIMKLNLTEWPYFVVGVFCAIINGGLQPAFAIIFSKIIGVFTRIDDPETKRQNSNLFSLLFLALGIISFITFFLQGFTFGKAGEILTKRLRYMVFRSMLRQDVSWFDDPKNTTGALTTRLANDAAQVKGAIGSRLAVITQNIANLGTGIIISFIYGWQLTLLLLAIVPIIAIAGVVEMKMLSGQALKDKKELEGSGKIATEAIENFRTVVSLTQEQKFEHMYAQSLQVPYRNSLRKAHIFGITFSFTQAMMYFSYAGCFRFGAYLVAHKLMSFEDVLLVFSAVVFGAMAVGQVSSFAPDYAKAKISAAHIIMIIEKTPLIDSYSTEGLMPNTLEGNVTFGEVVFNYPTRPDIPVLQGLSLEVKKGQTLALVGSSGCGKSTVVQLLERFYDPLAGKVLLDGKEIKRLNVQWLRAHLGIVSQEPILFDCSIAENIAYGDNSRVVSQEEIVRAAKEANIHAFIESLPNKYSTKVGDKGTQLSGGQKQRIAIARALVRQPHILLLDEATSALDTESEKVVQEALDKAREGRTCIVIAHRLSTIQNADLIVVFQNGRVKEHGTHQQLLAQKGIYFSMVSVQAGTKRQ
Chain of Alpha-glucosidase MAL12 (P53341 whole entry): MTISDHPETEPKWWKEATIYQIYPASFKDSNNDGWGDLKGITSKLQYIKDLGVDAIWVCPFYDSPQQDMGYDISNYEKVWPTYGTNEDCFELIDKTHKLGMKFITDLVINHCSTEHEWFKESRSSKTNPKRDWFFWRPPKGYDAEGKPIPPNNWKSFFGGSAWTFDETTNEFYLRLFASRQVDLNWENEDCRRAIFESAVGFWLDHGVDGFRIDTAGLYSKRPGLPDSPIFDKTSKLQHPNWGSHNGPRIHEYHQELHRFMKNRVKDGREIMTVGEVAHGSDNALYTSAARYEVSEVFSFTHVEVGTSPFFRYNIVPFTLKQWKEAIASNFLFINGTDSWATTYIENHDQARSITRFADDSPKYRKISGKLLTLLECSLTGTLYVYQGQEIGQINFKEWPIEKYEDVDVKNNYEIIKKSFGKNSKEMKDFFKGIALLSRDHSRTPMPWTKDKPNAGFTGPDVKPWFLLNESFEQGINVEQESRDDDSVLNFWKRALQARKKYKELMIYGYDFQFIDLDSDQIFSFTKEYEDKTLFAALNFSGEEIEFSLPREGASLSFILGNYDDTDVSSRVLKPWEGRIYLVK

Regarding `C/C(=C\CC[C@@H](C)[C@H]1CC[C@@]2(C)C3=C([C@@H](O)C[C@]12C)[C@@]1(C)CCC(=O)C(C)(C)[C@@H]1CC3=O)C(=O)O`, in data set [1], the Ratio was 3. In data set [2], this compound registered a half-inhibitory concentration (IC50) of 119 µM. Take `CC1(C)C(=O)CC[C@]2(C)C3=C(C(=O)C[C@@H]12)[C@]1(C)C(=O)C[C@H]([C@]2(C)CCC(=O)O2)[C@@]1(C)CC3=O`: in data set [2], inhibition was half-maximal at 81.8 µM (IC50).

Regarding `CC1(C)[C@@H](O)CC[C@]2(C)C3=C([C@@H](O)C[C@@H]12)[C@]1(C)C(=O)C[C@H]([C@]2(C)CCC(=O)O2)[C@@]1(C)[C@H](O)C3=O`, the half-maximal inhibitory concentration (IC50) in data set [2] was 41.7 µM.

Turning to `CC1(C)[C@@H](O)CC[C@]2(C)C3=C([C@@H](O)C[C@@H]12)[C@]1(C)C(=O)C[C@H]([C@]2(C)CCC(=O)O2)[C@@]1(C)C(=O)C3=O`, the Ratio in data set [1] turned out to be 3. In data set [2], this compound displayed a concentration for half-maximal inhibition (IC50) of 91.3 µM.

For `CC1(C)C(=O)CC[C@]2(C)C3=C([C@@H](O)C[C@@H]12)[C@]1(C)C(=O)C[C@H]([C@]2(C)CCC(=O)O2)[C@@]1(C)[C@@H](O)C3=O`, the Ratio in data set [1] is 3. As to `COC(=O)CC[C@@H](C)[C@H]1CC(=O)[C@@]2(C)C3=C(C(=O)C[C@]12C)[C@@]1(C)CCC(=O)C(C)(C)[C@@H]1CC3=O` [METHYL LUCIDENATE F], in data set [1], the Ratio is 3. The same measure, in the same setting: the result for `COc1ccc(CCN(C)CCCC(C#N)(c2ccc(OC)c(OC)c2)C(C)C)cc1OC` (stereo not given) reads 3.

Compound `C[C@H](C(=O)O)[C@H]1CC(=O)[C@@]2(C)C3=C(C(=O)C[C@]12C)[C@@]1(C)CCC(=O)C(C)(C)[C@@H]1CC3=O` returned a half-maximal inhibitory concentration (IC50) in data set [2] of 145 µM.
